Experimental data from article PMC10272271, “MAM-2201 acute administration impairs motor, sensorimotor, prepulse inhibition, and memory functions in mice: a comparison with its analogue AM-2201” (Psychopharmacology, 2023).

Legend:
[1] = test system: CD-1 male mice; assay: Novel Object Recognition (NOR) test; assay type: in vivo, mouse
Experimental: This test was performed according to the method reported by Ennaceur and Delacour ([1988]) and Antunes and Biala (2012). The test was conducted in three phases: habituation, familiarization, and choice. Firstly, CD-1 mice (n = 10/group) were subjected to a 3-day habituation phase, conducted by placing each animal into the NOR chamber (a square open field 60 cm × 60 cm × 40 cm, dark PVC plastic box) located in a dimly lit (50 lx), sound-attenuated and acclimatized room. Mice were allowed to explore freely for 20 min/day. No objects were placed in the box during the habituation trial. Twenty-four hours (h) after last habituation section, the familiarization trial was conducted by placing the mouse in the field in which two identical objects (A, A) were positioned in the corners of the arena approximately 6 cm from the walls. Mice were placed at the mid-point of the wall opposite to the objects and allowed to explore them for 15 min. Fifteen minutes after the familiarization phase, mice were injected with vehicle or drug (MAM-2201 and AM-2201) and tested in two consecutive choice sections performed 2 h (short-term memory) and 24 h (long-term memory) after the drug administration. During the choice test at 2 h, one of the two familiar objects (A) was replaced with a new one (novel; B), different in shape, dimension, and color. Each mouse was then placed in the apparatus and left free to explore the objects (A and B) for 5 min. In the choice test given at 24 h, the mice explored the open field for 5 min in the presence of one familiar (A) and one novel object (C, different from B). Exploration was defined as the time (s) during which the mouse nose was in contact with the object or directed toward it at a distance ≤ 2 cm. Turning around the object was not considered as exploratory behavior.
All experiments were performed using the ANY-maze video tracking system (Ugo Basile, application version 4.99 g Beta) and subsequently analyzed by an observer blind to the mouse treatment and to which object was the novel one. Exploration time of familiar (A) and novel (B) object was detected. The novel object preference was quantified as the Recognition Index (RI) calculated as: RI=novelB-familiarA/novelB+familiarA. Using this metric, scores approaching zero reflects no preference (impairment of recognition memory), positive values reflect preference for the novel object (good recognition memory) while negative numbers reflect preference for the familiar (impairment of recognition memory). Moreover, the total exploration time (s) spent by the animal in the choice phase at 2 h (familiar A + novel B) and 24 h (familiar A + novel C) was calculated to investigate the effect of drugs on object exploration.
The objects to be discriminated by mice were 7 sets of novel and familiar objects of different material (plastic, glass, or ceramic), shape (cube, parallelepiped, and cylinder), dimension (height: 3–8 cm; width: 6–8), and color (light yellow, red and blue). The set of objects used in the familiarization phase (two identical A, A objects) was used in the subsequent vehicle/drug conditions at 2 and 24 h. The choice of object for novel or familiar was counterbalanced and the position of each object was also alternated between trials to avoid any misinterpretation of data. The object weight was such that they could not be displaced by mice. To avoid mice olfactory cues, objects and apparatus were carefully cleaned with a dilute (5%) ethanol solution and water between animal trials and also between familiarization and choice phase (executed 2 and 24 h after the familiarization phase). Animals that spent less than 10 s exploring both objects were excluded from the study and replaced by other animals.

[2] = test system: CD-1 male mice; parameters: method as in Bilel et al. [2020]; conditions: ref Bilel et al. [2020]; cited from earlier work
[3] = test system: CD-1 male mice; parameters: method as in Bilel et al. ([2020]); conditions: i.p., value ± SEM, elaborated from earlier data, ref Bilel et al. ([2020]); cited from earlier work
[4] = test system: CD-1 male mice; parameters: method as in Bilel et al. ([2020]); conditions: i.p., value ± SEM, elaborated from earlier data, ref Bilel et al. ([2020]); cited from earlier work; remark: listed apart in the source
[5] = test system: CD-1 male mice; assay: Acoustic startle and pre-pulse inhibition (PPI) test; assay type: in vivo, mouse

O=C(c1cccc2ccccc12)c1cn(CCCCCF)c2ccccc12 [AM-2201, 1-[(5-Fluoropentyl)-1H-indol-3-yl](1-naphthylenyl) methanone]
effect on Total Object Exploration (TOE) time ([1]; 0.1 mg/kg i.p.): did not alter
effect on Recognition Index (RI) ([1]; 0.1 mg/kg i.p., 2 h): RI reduction
effect on Total Object Exploration (TOE) time ([1]; 1 mg/kg i.p., 2 and 24 h): impaired
effect on Recognition Index (RI) ([1]; 1 mg/kg i.p., 2 h): reversal
effect on Recognition Index (RI) ([1]; 0.1 and 1 mg/kg i.p., 24 h): significant reduction
time during which distance traveled was reduced [2]: up to 45 min
ED50 (mg/kg), Visual placing [3]: 0.500 ± 0.030 mg/kg
ED50 (mg/kg), Startle reflex [4]: 1.291 ± 0.010 mg/kg

Cc1ccc(C(=O)c2cn(CCCCCF)c3ccccc23)c2ccccc12 [MAM-2201, 1-[(5-fluoropentyl)-1H-indol-3-yl](4-methyl-1-naphthalenyl) methanone]
effect on Total Object Exploration (TOE) time ([1]; 0.1 mg/kg i.p.): did not alter
effect on Recognition Index (RI) ([1]; 0.1 mg/kg i.p., 2 h): significantly reduced
effect on Total Object Exploration (TOE) time ([1]; 1 mg/kg i.p., 2 and 24 h): impaired
effect on Recognition Index (RI) ([1]; 1 mg/kg i.p., 2 h): negative score
effect on Recognition Index (RI) ([1]; 0.1 and 1 mg/kg i.p., 24 h): significant decrease
effect on startle amplitude ([5]; only at 1 mg/kg i.p., at 15 and 120 min): reduced
effect on PPI (prepulse startle intensity) ([5]; prepulse 68 dB, 15 min, 0.1 and 1 mg/kg i.p.): significant decrease
decrease of PPI ([5]; prepulse 68 dB, 120 min, 0.1 mg/kg i.p.): ~ 19%
decrease of PPI ([5]; prepulse 68 dB, 120 min, 1 mg/kg i.p.): ~40%
decrease of PPI ([5]; prepulse 75 dB, 15 min, 0.1 mg/kg i.p.): ~ 28%
decrease of PPI ([5]; prepulse 75 dB, 15 min, 1 mg/kg i.p.): ~ 41%
decrease of PPI ([5]; prepulse 75 dB, 120 min, 1 mg/kg i.p.): ~ 34%
decrease of PPI ([5]; prepulse 85 dB, 15 min, 0.1 mg/kg i.p.): ~ 19%
decrease of PPI ([5]; prepulse 85 dB, 15 min, 1 mg/kg i.p.): ~ 37%
decrease of PPI ([5]; prepulse 85 dB, 120 min, 0.1 mg/kg i.p.): ~ 19%
decrease of PPI ([5]; prepulse 85 dB, 120 min, 1 mg/kg i.p.): ~ 37%
